Six molecules from PMC4167230, “Hydrophobic Substituents of the Phenylmethylsulfamide Moiety Can Be Used for the Development of New Selective Carbonic Anhydrase Inhibitors” (BioMed Research International, 2014) can be followed below.

What all share (assay): stopped-flow CO2 hydration assay
What all share (format): biochemical

One assay deals with T1, hCA II (Homo sapiens, UniProt P00918).
T1 construct: gene CA2; cytosolic isoform; one molecule in the asymmetric unit
Conditions: read-out: K I (nM)∗ / hCA II. The source says:
stopped-flow CO2 hydration assay on hCA II

For another assay, the target named is T2, hCA I (Homo sapiens, UniProt P00915).
T2 construct: gene CA1; cytosolic isoform
T2 sequence (P00915 2-261): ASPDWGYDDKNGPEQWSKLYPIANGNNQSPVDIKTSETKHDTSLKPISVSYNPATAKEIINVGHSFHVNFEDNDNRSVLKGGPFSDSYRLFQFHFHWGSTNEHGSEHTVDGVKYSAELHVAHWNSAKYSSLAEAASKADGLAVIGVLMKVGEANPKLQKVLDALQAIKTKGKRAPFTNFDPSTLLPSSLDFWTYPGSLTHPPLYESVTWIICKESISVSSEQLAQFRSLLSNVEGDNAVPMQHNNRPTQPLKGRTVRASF
Conditions: read-out: K I (nM)∗ / hCA I. An excerpt: stopped-flow CO2 hydration assay on hCA I

A further assay addresses T3, hCA XII (Homo sapiens, UniProt O43570).
T3 construct: gene CA12; transmembrane isoform
Conditions: read-out: K I (nM)∗ / hCA XII. An excerpt:
stopped-flow CO2 hydration assay on hCA XII

Molecules are shown by their SMILES.

T3 sequence (O43570 25-354): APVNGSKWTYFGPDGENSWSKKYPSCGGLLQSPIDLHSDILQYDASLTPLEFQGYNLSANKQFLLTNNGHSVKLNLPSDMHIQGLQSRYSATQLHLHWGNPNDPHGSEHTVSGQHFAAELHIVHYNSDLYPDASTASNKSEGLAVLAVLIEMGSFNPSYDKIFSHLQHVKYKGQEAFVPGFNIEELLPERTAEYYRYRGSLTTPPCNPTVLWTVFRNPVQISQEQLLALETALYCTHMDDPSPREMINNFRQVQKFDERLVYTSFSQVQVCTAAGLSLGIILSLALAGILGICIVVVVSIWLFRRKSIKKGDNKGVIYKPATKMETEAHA

Consider `CC#CCOc1ccc(CNS(N)(=O)=O)cc1` [compound 14, N-[4-(But-2-yn-1-yloxy)benzyl]sulfuric Diamide], for which the values for the Ki on hCA II, on hCA I and at hCA XII were 9.5 nM, 1810 nM and 8.1 nM, respectively.
For `Cc1cc(COc2ccc(C=NS(N)(=O)=O)cc2)c2ccccc2n1` [compound 15, N-({4-[(2-Methylquinolin-4-yl)methoxy]phenyl}methylidene)sulfuric Diamide] the same measures were 188 nM, 1650 nM and 6.5 nM.
As for `CC#CCOc1ccc(C=NS(N)(=O)=O)cc1` [compound 13, N-([4-(But-2-yn-1-yloxy)phenyl]methylidene)sulfuric Diamide], the figures for the Ki at hCA II, on hCA I and on hCA XII were 9.8 nM, 1940 nM and 8.4 nM, respectively.
On to `COc1ccc(CNS(N)(=O)=O)cc1` [compound 12, N-(4-Methoxybenzyl)sulfuric Diamide], for which the figures for the Ki on hCA II, on hCA I and at hCA XII were 134 nM, 4050 nM and 6.6 nM, respectively.
For `Cc1cc(COc2ccc(CNS(N)(=O)=O)cc2)c2ccccc2n1` [compound 16, N-{4-[(2-Methylquinolin-4-yl)methoxy]benzyl}sulfuric Diamide] the same measures were 43.3 nM, 1440 nM and 6.6 nM.
Consider `NS(=O)(=O)NCc1ccc(O)cc1` [compound 11, N-(4-Hydroxybenzyl)sulfuric Diamide], for which the Ki at hCA II came out at 74.1 nM; on hCA I it was 2180 nM; at hCA XII, 5.8 nM.
